The results in this text go back to patent US6875761B2 (Eisai Co., Ltd., priority 1997, dated 2005).

SMILES strings stand for the structures. Structures can show the parent of a compound that is named as a salt.

One data set addresses T1, serotonin 1A receptor (Rattus norvegicus, UniProt P19327).
T1 construct: To the receptor fraction of the hippocampus were added a test compound and 0.5 nM of [^3H]; 8-hydroxy-dipropylaminotetralin; from tissue; host or cells: rat hippocampus membrane fraction
T1 sequence (P19327 1-422): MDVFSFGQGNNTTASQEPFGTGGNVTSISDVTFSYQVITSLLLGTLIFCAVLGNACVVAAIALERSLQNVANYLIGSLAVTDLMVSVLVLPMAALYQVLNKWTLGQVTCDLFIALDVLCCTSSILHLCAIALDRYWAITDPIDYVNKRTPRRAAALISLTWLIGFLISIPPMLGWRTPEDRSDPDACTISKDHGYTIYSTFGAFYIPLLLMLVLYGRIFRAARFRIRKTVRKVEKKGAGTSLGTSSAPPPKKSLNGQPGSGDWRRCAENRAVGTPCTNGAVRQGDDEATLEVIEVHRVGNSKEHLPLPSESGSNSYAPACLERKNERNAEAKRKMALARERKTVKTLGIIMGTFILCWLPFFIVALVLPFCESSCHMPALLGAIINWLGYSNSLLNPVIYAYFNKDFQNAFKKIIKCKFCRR
Nature of the data set: Binding test on [3H] 8-hydroxy-dipropylaminotetralin, hippocampus receptor fraction. The conditions noted are these: rat hippocampus receptor fraction, 0.5 nM [3H] 8-OH-DPAT, room temperature 30 min; read-out: 5HT1. On the set-up: species or system SD rats.

The next data set concerns the target α1 adrenalin receptor. The experiment in a line: Binding test on [3H] prazosin, cerebral cortex receptor fraction. The conditions noted are these: rat cerebral cortex receptor fraction, about 0.2 nM [3H] prazosin, room temperature 60 min; read-out: α 1. On the set-up: species or system SD rats.
The target in another data set is T2, serotonin 2 receptor (Rattus norvegicus, UniProt P14842).
T2 construct: To the receptor fraction of the cerebral cortex were added a test compound and 0.3 nM of [^3H] ketanserin; from tissue; host or cells: rat cerebral cortex membrane fraction
T2 sequence (P14842 whole entry): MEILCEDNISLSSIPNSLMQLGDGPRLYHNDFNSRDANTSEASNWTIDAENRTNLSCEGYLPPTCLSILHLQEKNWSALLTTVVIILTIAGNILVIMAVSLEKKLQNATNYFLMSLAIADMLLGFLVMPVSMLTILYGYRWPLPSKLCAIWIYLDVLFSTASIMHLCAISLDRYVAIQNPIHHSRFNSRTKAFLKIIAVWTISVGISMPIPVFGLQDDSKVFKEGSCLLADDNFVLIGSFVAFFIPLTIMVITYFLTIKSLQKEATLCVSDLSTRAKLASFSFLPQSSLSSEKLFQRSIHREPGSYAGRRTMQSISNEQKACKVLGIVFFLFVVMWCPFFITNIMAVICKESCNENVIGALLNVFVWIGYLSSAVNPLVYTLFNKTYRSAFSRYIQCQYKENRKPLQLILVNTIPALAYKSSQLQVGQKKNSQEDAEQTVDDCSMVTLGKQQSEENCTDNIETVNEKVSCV
The experiment in a line: Binding test on [3H] ketanserin, cerebral cortex receptor fraction. Details: species or system SD rats. The conditions noted are these: 0.3 nM [3H] ketanserin, 37° C. 15 min, read-out: 5HT2.

Experimental for α1 adrenalin receptor: As radioisotope-labeled compounds, use was made of the following reagents (mfd. by NEN). • 3) [^3H] […] Prazosin.
Use was made of SD rats aged 6 to 8 weeks.
The rats were sacrificed by dcapitation to extirpate the cerebra.
Each mixture was homogenized by using a Teflon glass homogenizer and centrifuged as 1,000× g for 10 min. The supernatant thus obtained was further centrifuged at 20,000× g for 20 min. […] After centrifuging at 20,000× g for 20 min, the obtained precipitate was further suspended and centrifuged twice each in the same manner. […] This receptor fraction was stored at −80° C. until using.
IC50 was calculated by the probit method, while Ki was determined in accordance with the following formula: Ki=IC50(1+c/Kd) wherein c represents the concentration of the radioisotope-labeled compound, and Kd represents the dissociation constant of the radioisotope-labeled compound with respect to the receptor determined by Scatchard's analysis. (Binding test on [^3H] prazosin)
To the receptor fraction of the cerebral cortex were added a test compound and about 0.2 nM of [^3H] prazosin and the resultant mixture was incubated at room temperature for 60 min. Next, it was filtered through a glass filter with the use of a cell harvester. After washing the glass filter with 50 mM Tris hydrochloride (pH 7.4), the radioactivity of the receptor was measured with a liquid scintillation counter. The binding detected in the presence of 10 μM of phentolamine was referred to as the nonspecific binding.

For orientation: melting point means the temperature of the solid-liquid transition. With `CCN1CCN(c2nc(-c3ccc(OCCCO)cc3)cc3ccccc23)CC1.Cl.Cl` [Example 331, 1-(4-ethylpiperazin-1-yl)-3-[4-(3-hydroxypropoxy)phenyl]isoquinoline dihydrochloride], the melting point was 112 to 113 °C (dec.). In addition, the Ki on serotonin 1A receptor was determined as 23.6 nM. For the same compound, the Ki at α1 adrenalin receptor was 722 nM. For the same compound, the Ki at serotonin 2 receptor came out at 5.9 nM.
Consider `CCN1CCN(c2nc(-c3ccc(O)cc3)cc3ccccc23)CC1` [Example 7, 1-(4-ethylpiperazin-1-yl)-3-(4-hydroxyphenyl)isoquinoline], for which the melting point lay in the range of 204 to 206 °C. Moreover, on serotonin 1A receptor, the Ki worked out at 27.9 nM. Moreover, the Ki at α1 adrenalin receptor amounted to 521 nM. For the same compound, on serotonin 2 receptor, the Ki stood at 81.3 nM.
With `CCN1CCN(c2nc(-c3ccc(N4CCOCC4)cc3)cc3ccccc23)CC1` [Example 160, 3-[4-(4-morpholinyl)phenyl]-1-(4-ethylpiperazin-1-yl)isoquinoline dihydrochloride], the Ki on serotonin 1A receptor amounted to 22.2 nM; at α1 adrenalin receptor it was 536 nM; at serotonin 2 receptor it was 0.7 nM.
The matching figures for `CCCC(O)c1ccc(-c2cc3ccccc3c(N3CCN(CC)CC3)n2)cc1` (stereo not drawn) [Example 21, 1-(4-ethylpiperazin-1-yl)-3-[4-(1-hydroxybutyl)phenyl]isoquinoline oxalate]: 17.2 nM, 636 nM and 4.3 nM.
Turning to `CCN1CCN(c2nc(/C=C/c3ccccc3S(C)(=O)=O)cc3ccccc23)CC1.Cl` [Example 202, 3-[(E)-2-(2-Methylsulfonylphenyl)Ethenyl]-1-(4-Ethylpiperazin-1-Yl)Isoquinoline Hydrochloride], the melting point lay within 146 to 149 °C. Moreover, the Ki on serotonin 1A receptor turned out to be 14.6 nM. Also, at α1 adrenalin receptor, the Ki was above 2000 nM. Further, the Ki at serotonin 2 receptor worked out at 2.22 nM.
For the compound `CCCCS(=O)(=O)Nc1ccc(-c2cc3ccccc3c(N3CCN(CC)CC3)n2)cc1` [Example 73, 3-(4-Butylsulfonylaminophenyl)-1-(4-Ethylpiperazin-1-Yl)Isoquinoline Hydrochloride], the Ki turned out to be 13 nM at serotonin 1A receptor, 699 nM on α1 adrenalin receptor and 3.3 nM at serotonin 2 receptor.
For `CCN1CCN(c2nc(-c3ccc(CCCOC)nc3)cc3ccccc23)CC1` [Example 139, 1-(1-Ethylpiperazin-4-yl)-3-[2-(3-Methoxypropyl)Pyridin-5-yl]Isoquinoline Oxalate], the Ki amounted to 2.7 nM at serotonin 1A receptor, 374 nM at α1 adrenalin receptor and 5.1 nM at serotonin 2 receptor.
